Test results published in patent publication US11420961B2, “Heterocyclic compounds” (Hoffmann-La Roche Inc., priority 2017, dated 2022).

target: T1, MAGL (Homo sapiens, UniProt Q99685); experiment: 2-AG assay: MAGL inhibitory activity by hydrolysis of 2-arachidonoylglycerol to arachidonic acid, mass spectrometry; type: biochemical; conditions: 2-AG assay (values marked [a])
T1 sequence (Q99685 1-303): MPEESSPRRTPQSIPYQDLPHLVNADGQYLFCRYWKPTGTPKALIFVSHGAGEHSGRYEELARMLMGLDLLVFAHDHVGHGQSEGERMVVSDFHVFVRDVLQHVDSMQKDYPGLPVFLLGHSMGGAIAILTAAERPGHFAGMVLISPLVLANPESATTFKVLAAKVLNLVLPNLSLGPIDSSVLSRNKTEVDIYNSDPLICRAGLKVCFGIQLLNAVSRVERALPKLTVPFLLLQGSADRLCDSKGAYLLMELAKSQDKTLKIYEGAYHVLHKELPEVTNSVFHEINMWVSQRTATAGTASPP
Description: Alternatively, compounds were profiled for MAGL inhibitory activity by determining the enzymatic activity by following the hydrolysis of the natural substrate, 2-arachidonoylglycerol, resulting in arachidonic acid, which can be followed by mass spectrometry. This assay is hereinafter abbreviated “2-AG assay”.
The 2-AG assay was carried out in 384 well assay plates (PP, Greiner Cat #784201) in a total volume of 20 μL. Compound dilutions were made in 100% DMSO (VWR Chemicals 23500.297) in a polypropylene plate in 3-fold dilution steps to give a final concentration range in the assay from 12.5 μM to […]. 0.25 μL compound dilutions (100% DMSO) were added to 9 μL MAGL in assay buffer (50 mM TRIS (GIBCO, 15567-027), 1 mM EDTA (Fluka, 03690-100 ml), 0.01% (v/v) Tween. After shaking, the plate was incubated for 15 min at RT. To start the reaction, 10 μL 2-arachidonoylglycerol in assay buffer was added. The final concentrations in the assay was […] and 8 μM 2-arachidonoylglyerol. After shaking and 30 min incubation at RT, the reaction was quenched by the addition of 40 μL of acetonitrile containing 4 μM of d8-arachidonic acid. The amount of arachidonic acid was traced by an online SPE system (Agilent Rapidfire) coupled to a triple quadrupole mass spectrometer (Agilent 6460). A C18 SPE cartridge (G9205A) was used in an acetonitrile/water liquid setup. The mass spectrometer was operated in negative electrospray mode following the mass transitions 303.1→259.1 for arachidonic acid and 311.1→267.0 for d8-arachidonic acid. The activity of the compounds was calculated based on the ratio of intensities [arachidonic acid/d8-arachidonic acid].

Compared with `COc1cc(C(c2ccccc2)C2CCN(C(=O)c3ccc4c(c3)NC(=O)CO4)CC2)ccn1` (single isomer, unassigned) [Example 137, 6-[4-[(R or S)-(2-Methoxy-4-pyridyl)-phenyl-methyl]piperidine-1-carbonyl]-4H-1,4-benzoxazin-3-one], `COc1ccc(C(c2ccccc2)C2CCN(C(=O)c3ccc4c(c3)NC(=O)CO4)CC2)cc1OCCF` (single isomer, unassigned) [Example 134, 6-[4-[(S or R)-3-(2-Fluoroethoxy)-4-methoxy-phenyl-phenyl-methyl]piperidine-1-carbonyl]-4H-1,4-benzoxazin-3-one] is 2.2-fold lower in IC50: 0.24 nM for the first, 0.11 nM for the second. The second is the more potent here.

First: Cn1cc(C(c2ccccc2)C2CCN(C(=O)c3ccc4c(c3)NC(=O)CO4)CC2)cn1 (single isomer, unassigned) [Example 140, 6-[4-[(S or R)-(1-Methylpyrazol-4-yl)-phenyl-methyl]piperidine-1-carbonyl]-4H-1,4-benzoxazin-3-one]
Second: CS(=O)(=O)c1ccc(C(c2ccccc2)C2CCN(C(=O)c3ccc4c(c3)NC(=O)CO4)CC2)cc1 (single isomer, unassigned) [Example 133, 6-[4-[(R or S)-(4-Methylsulfonylphenyl)-phenyl-methyl]piperidine-1-carbonyl]-4H-1,4-benzoxazin-3-one]
The IC50 of the first is 40-fold lower: 0.62 nM for the first, 25.1 nM for the second.

Going from `Cn1cc(C(c2ccccc2)C2CCN(C(=O)c3ccc4c(c3)NC(=O)CO4)CC2)cn1` (single isomer, unassigned) [Example 141, 6-[4-[(R or S)-(1-Methylpyrazol-4-yl)-phenyl-methyl]piperidine-1-carbonyl]-4H-1,4-benzoxazin-3-one] to `CS(=O)(=O)c1ccc(C(c2ccccc2)C2CCN(C(=O)c3ccc4c(c3)NC(=O)CO4)CC2)cc1` (single isomer, unassigned) [Example 132, 6-[4-[(S or R)-(4-Methylsulfonylphenyl)-phenyl-methyl]piperidine-1-carbonyl]-4H-1,4-benzoxazin-3-one], the IC50 falls from 6.68 nM to 0.27 nM (25-fold). The second is the more potent here.

First: COc1cccc(C(c2ccccc2)C2CN(C(=O)c3ccc4c(c3)NC(=O)CO4)C2)c1 (centres unmarked) [Example 131, 6-[3-[(3-Methoxyphenyl)-phenyl-methyl]azetidine-1-carbonyl]-4H-1,4-benzoxazin-3-one]
Second: O=C1COc2ccc(C(=O)N3CC(C(c4ccccc4)c4ccc(C(F)(F)F)cc4)C3)cc2N1 (centres unmarked) [Example 130, 6-[3-[Phenyl-[4-(trifluoromethyl)phenyl]methyl]azetidine-1-carbonyl]-4H-1,4-benzoxazin-3-one]
The IC50 of the first is 2.1-fold higher: 182 nM for the first, 85.3 nM for the second.
